Results from patent US7786142B2, “Heterocyclic compounds as pSTAT3/IL-6 inhibitors” (Orchid Research Laboratories, Ltd., priority 2005, dated 2010).
“Also recorded” adds a separate entry of the source.

Columns and labels:
[1] = system: NCIH460, HCT116, MDAMB-231/U 251; experiment: Anti-cancer screen, mean GI50 over the cell lines; type: cell-based
In short: (§1)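 Cells (5000/well) in DMEM with 10% FBS were treated for 48 hours with 0.01, 0.1, 1, 10 and 100 μM compound in triplicate. MTT read at 570 nm gave percent growth relative to untreated controls and pre-dose T0 wells, from which GI50, TGI and LC50 were derived.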

HCT116 cells = experiment: Anti-cancer screen (MTT), HCT116 cells; type: cell-based; conditions: Homo sapiens, HCT-116, HCT116, 48 hours, concentrations tested 0.01-100 μM
In short: as §1

pSTAT3 = pSTAT3 inhibition (Western blot in DU 145 / SKOV-3 cells; ELISA in HepG2 cells); type: cell-based; conditions: in words; FIGS. 1 and 2
Method: Western blot analysis was performed as described by Kammer W et. al (J Biol Chem 271, 23634-23637, and J Biol Chem 273, 31222-31229). Briefly, 60 μg of whole cell extract was solubilized in Laemmeli buffer (50 mM Tris/HCl, pH 6.8, 2% SDS, 10% glycerol, 1 mM DTT, 1× Protease inhibitor cocktail, SET-3 (Calbiochem), 1 mM Sodium Ortho-vanadate) boiled for 5-10 minutes, and separated on a 10 or 12% acrylamide SDS gel. After protein transfer, the nitrocellulose membranes were blocked in blocking buffer for 2 hour (1×TBS, 0.1% Tween-20, 5% BSA). Membranes were incubated for 20 hours in blocking buffer containing, STAT3 P-Tyr705 (Santa Cruz Biotech), STAT3 (H-190, Santa Cruz Biotech) and Actin (C-2, Santa Cruz Biotech) antibody at 1:300 dilution. Detection was performed with HRP conjugated antimouse/antirabbit IgG (Santa Cruz Biotech) at a dilution of 1:3,000 for 1 hour. Visualization was performed using an Enhanced Chemiluminescence detection kit (Amersham). See Appended Diagrams: FIGS. 1 and 2. […]
Capture Antibody was diluted to a working concentration of 2.0 μg/mL in PBS. […] The plates were made ready after 2-3 washes with wash buffer. […] The reaction was stopped by adding 50 μl of stop solution to each well and the OD was determined using a microplate reader at 450 nm.

NCI H460 Xenograft = experiment: In-vivo anti-cancer activity, NCI H460 xenograft model; set-up: species or system SCID mice; conditions: NCI H460 Xenograft model, in words
Method: Experiments were carried out using 6-8 week old female athymic SCID (Severe Combined Immune Deficient) mice. The mice were kept in laminar flow rooms (housed in Individually Ventilated Cages) at constant temperature and humidity. They had free access to food and water. Tumors were obtained form ATCC and maintained by s.c. passages of tumor fragments (about 2×2×2 mm) in healthy mice according to standard reported procedures. Each experimental group included six/eight mice bearing bilateral tumors. Tumors were implanted on day 0, and tumor growth was followed by biweekly measurements of tumor diameters with a Vernier caliper. Tumor Volume (TV) was calculated according to the following formula: TV (mm^3)=d^2 XD/2, where d and D are the shortest diameter and the longest diameter of the tumor, respectively. The drug treatment started when tumors were just measurable (Mean TV=150-200 mm^3).
All test compound/standard drugs were delivered by gavage in a volume of 10 ml/kg. Drugs were administered every day for single time to a period of 21 days. Control mice were treated with the drug solvent/vehicle. Tumor size is measured every alternate days and body weight is recorded daily.
• a) Tumor Volume Inhibition (TVI): A TVI value higher than 80% is indicative of active compounds. • b) T/C % is also another indicator for the activity. A reproducible 20% T/C is considered as therapeutically active. • c) Log Cell Kill (LCK): A LCK value greater than 1 is indicative of active compounds. • d) Relative Tumor Volume (RTV), Tumor Delay and % Tumor volume change are also considered as valuable additional parameters for assessment. • e) Toxic effects of drug treatment were assessed by Body Weight Loss % • f) Lethal toxicity was defined as any death in treated groups occurring before any control death. Mice were inspected daily for mortality and toxic clinical signs.

**Q.** With `COc1ccc(CNC[C@H](O)COc2cccc3[nH]c4ccccc4c23)c(OC)c1` [Example 25, (2S)-1-(9H-carbazol-4-yloxy)-3-[(2,4-dimethoxybenzyl)amino]propan-2-ol] as the compound, how does the GI50 [1] read?
**A.** 6.4 µM

**Q.** What about the GI50 (HCT116 cells) of the same compound?
**A.** 5.6 µM

**Q.** What about the IC (TGI) (HCT116 cells) of the same compound?
**A.** 48 µM

**Q.** And the LC50 (concentration for 50% net cell kill relative to T0) (HCT116 cells)?
**A.** 79 µM

**Q.** And the pSTAT3 inhibition (pSTAT3)?
**A.** work through pSTAT3 inhibition; also recorded: operates through pSTAT3 inhibition

**Q.** What about the in-vivo anti-cancer activity (NCI H460 Xenograft) of the same compound?
**A.** good anti-cancer activity
